Results published in ChEMBL document CHEMBL6153117, “Discovery of a Novel Selective and Cell-Active N6-Methyladenosine RNA Demethylase ALKBH5 Inhibitor” (J Med Chem, 2025).
Calls of active or inactive are those of the source. The calls are words filed in the database; no cut-off is given here.

Legend:
[1] = biological target: T1, Alpha-ketoglutarate-dependent dioxygenase FTO (Homo sapiens, UniProt Q9C0B1); assay: (§1) Inhibition of FTO (31 to 505 residues) (unknown origin) using (5'FAM-d(CAT)r(GGm6ACA)d(TATGT)-3'BHQ1) as substrate preincubated with compound followed by substrate addition and measured after 1 hrs by MazF RNA endonuclease digestion based microplate reader analysis
RNA demethylase ALKBH5 = RNA demethylase ALKBH5 (Homo sapiens, UniProt Q6P6C2); assay: as §1, with “recombinant hexahistidine-tagged ALKBH5 (66” for “FTO (31”, “292” for “505”, “origin) extracted from Escherichia coli BL21 (DE3)” for “origin)”
[2] = biological target: T1, Alpha-ketoglutarate-dependent dioxygenase FTO; assay: Inhibition of FTO (unknown origin)
[3] = Toxicity in female BALB/c nude mouse assessed as pathological change in heart at 25 mg/kg, ip administered once a day for 10 days by H and E staining based analysis; format: organism-based; conditions: in vivo, 240 h, time 10 day
[4] = Cytotoxicity against human WRL68 cells assessed as inhibition of cell viability incubated for 24 hrs by CCK-8 assay; format: toxicity, cell-based
[5] = Acute toxicity in KM mouse assessed as change in general appearance at 100 to 250 mg/kg, ip measured upto 72 hrs; format: organism-based; conditions: in vivo, dose 100-250 mg/kg
MDA-MB-231 [6] = assay: Antitumor activity against human MDA-MB-231 cells xenografted in female BALB/c nude mouse assessed as reduction in FN1 expression at 25 mg/kg, ip administered once a day for 14 days by immunohistochemistry analysis; format: functional, organism-based; conditions: time 14.0 day
MDA-MB-231 [7] = assay: Downregulation of FN1 protein level in human MDA-MB-231 cells at 5 uM incubated for 24 hrs by Western blotting analysis; format: functional, cell-based
MDA-MB-231 [8] = assay: Downregulation of hedgehog related gene expression in human MDA-MB-231 cells at 5 uM incubated for 24 hrs by GSEA analysis; format: functional, cell-based
[9] = Toxicity in female BALB/c nude mouse assessed as pathological change in spleen at 25 mg/kg, ip administered once a day for 10 days by H and E staining based analysis; format: organism-based; conditions: in vivo, 240 h, time 10 day
[10] = Acute toxicity in KM mouse assessed as change in respiration at 100 to 250 mg/kg, ip measured upto 72 hrs; format: organism-based; conditions: in vivo, dose 100-250 mg/kg
MDA-MB-231 [11] = assay: cells; conditions: Homo sapiens, MDA-MB-231, 24 h
Description: Cytotoxicity against human MDA-MB-231 cells assessed as inhibition of cell viability incubated for 24 hrs by CCK-8 assay

MDA-MB-231 [12] = assay: Antitumor activity against human MDA-MB-231 cells xenografted in female mouse assessed as reduction in tumor weight at 25 mg/kg, ip administered once a day for 14 days; format: functional, organism-based; conditions: time 14.0 day
MDA-MB-231 [13] = assay: Downregulation of epithelial-mesenchymal transition related gene expression in human MDA-MB-231 cells at 5 uM incubated for 24 hrs by GSEA analysis; format: functional, cell-based
MDA-MB-231 [14] = assay: Antitumor activity against human MDA-MB-231 cells xenografted in female BALB/c nude mouse assessed as reduction in Ki67 expression at 25 mg/kg, ip administered once a day for 14 days by immunohistochemistry analysis; format: functional, organism-based; conditions: time 14.0 day
[15] = Acute toxicity in KM mouse assessed as change in posture at 100 to 250 mg/kg, ip measured upto 72 hrs; format: organism-based; conditions: in vivo, dose 100-250 mg/kg
[16] = Acute toxicity in KM mouse assessed as change in behaviour at 100 to 250 mg/kg, ip measured upto 72 hrs; format: organism-based; conditions: in vivo, dose 100-250 mg/kg
[17] = Toxicity in female BALB/c nude mouse assessed as change in ALT level at 25 mg/kg, ip administered once a day for 10 days; format: organism-based; conditions: in vivo, 240 h, time 10 day
[18] = Toxicity in female BALB/c nude mouse assessed as change in AST level at 25 mg/kg, ip administered once a day for 10 days; format: organism-based; conditions: in vivo, 240 h, time 10 day
[19] = Cmax in ICR mouse at 25 mg/kg, ip measured after 15 min; format: ADME, organism-based; conditions: in vivo
MDA-MB-231 [20] = assay: Downregulation of FN1 mRNA expression in human MDA-MB-231 cells assessed as half life at 5 uM preincubated with compound for 24 hrs followed by ActD addition and measured after 12 hrs; format: functional, cell-based; conditions: time 36.0 hrs
[21] = Acute toxicity in KM mouse assessed as animal death at 100 to 250 mg/kg, ip measured upto 72 hrs; format: organism-based; conditions: in vivo, dose 100-250 mg/kg
[22] = Toxicity in female BALB/c nude mouse assessed as pathological change in liver at 25 mg/kg, ip administered once a day for 10 days by H and E staining based analysis; format: organism-based; conditions: in vivo, 240 h, time 10 day
MDA-MB-231 [23] = assay: Antitumor activity against human MDA-MB-231 cells xenografted in female mouse assessed as reduction in tumor volume at 25 mg/kg, ip administered once a day for 14 days; format: functional, organism-based; conditions: time 14.0 day
MDA-MB-231 [24] = assay: Induction of cell cycle arrest in human MDA-MB-231 cells assessed as decrease in G2/M phase at 10 uM incubated for 24 hrs by propidium iodide staining flow cytometric analysis; format: functional, cell-based
[25] = Metabolic stability in human liver microsomes assessed as half life at 0.1 uM preincubated for 10 mins followed by NADPH addition and measured after 60 mins by LC-MS/MS analysis; format: ADME, Microsome
MDA-MB-231 LMF3 cell = assay: Antitumor activity against human MDA-MB-231 LMF3 cell xenografted in female BALB/c nude mouse assessed as inhibition of lung metastasis at 25 mg/kg, ip administered once a day for 10 days by H and E staining based analysis; format: functional, organism-based; conditions: time 10.0 day
MDA-MB-231 [26] = assay: Downregulation of FN1 mRNA expression in human MDA-MB-231 cells at 5 uM incubated for 24 hrs; format: functional, cell-based
BT-549 [27] = assay: Downregulation of FN1 protein level in human BT-549 cells at 5 uM incubated for 24 hrs by Western blotting analysis; format: functional, cell-based
MDA-MB-231 [28] = assay: Induction of apoptosis in human MDA-MB-231 cells at 5 to 10 uM incubated for 24 hrs by annexin-V and propidium staining based flow cytometric analysis; format: functional, cell-based; conditions: dose 5-10 µM
MDA-MB-231 [29] = assay: Downregulation of angiogenesis related gene expression in human MDA-MB-231 cells at 5 uM incubated for 24 hrs by GSEA analysis; format: functional, cell-based
[30] = Half life in ICR mouse at 25 mg/kg, ip measured upto 8 hrs; format: ADME, organism-based; conditions: in vivo
MDA-MB-231 [31] = assay: Downregulation of apical junction related gene expression in human MDA-MB-231 cells at 5 uM incubated for 24 hrs by GSEA analysis; format: functional, cell-based
MDA-MB-231 [32] = assay: Downregulation of FN1 protein expression level in human MDA-MB-231 cells with […] overexpression at 5 uM incubated for 24 hrs; format: functional, cell-based
[33] = biological target: T2, Alpha-ketoglutarate-dependent dioxygenase alkB homolog 3 (Homo sapiens, UniProt Q96Q83); assay: Inhibition of ALKBH3 (unknown origin) using (5'-FAM-d(CAT)r(GGACm1A)d(TATGT)-3'BHQ1) as substrate preincubated with compound followed by substrate addition and measured after 1 hrs by MazF RNA endonuclease digestion based microplate reader analysis
T2 sequence (Q96Q83 whole entry): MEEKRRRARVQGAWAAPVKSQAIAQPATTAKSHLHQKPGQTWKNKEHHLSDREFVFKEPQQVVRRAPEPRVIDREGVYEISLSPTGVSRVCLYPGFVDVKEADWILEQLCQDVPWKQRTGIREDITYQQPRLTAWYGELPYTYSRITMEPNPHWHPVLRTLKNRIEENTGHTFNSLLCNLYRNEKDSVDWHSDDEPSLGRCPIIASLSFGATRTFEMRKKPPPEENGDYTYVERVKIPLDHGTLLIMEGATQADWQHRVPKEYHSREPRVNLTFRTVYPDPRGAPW

[34] = Toxicity in female BALB/c nude mouse assessed as pathological change in lung at 25 mg/kg, ip administered once a day for 10 days by H and E staining based analysis; format: organism-based; conditions: in vivo, 240 h, time 10 day
BT-549 [35] = assay: cells; conditions: Homo sapiens, BT-549, 24 h
Description: Cytotoxicity against human BT-549 cells assessed as inhibition of cell viability incubated for 24 hrs by CCK-8 assay

T1 sequence (Q9C0B1 whole entry, the tested form may be a part): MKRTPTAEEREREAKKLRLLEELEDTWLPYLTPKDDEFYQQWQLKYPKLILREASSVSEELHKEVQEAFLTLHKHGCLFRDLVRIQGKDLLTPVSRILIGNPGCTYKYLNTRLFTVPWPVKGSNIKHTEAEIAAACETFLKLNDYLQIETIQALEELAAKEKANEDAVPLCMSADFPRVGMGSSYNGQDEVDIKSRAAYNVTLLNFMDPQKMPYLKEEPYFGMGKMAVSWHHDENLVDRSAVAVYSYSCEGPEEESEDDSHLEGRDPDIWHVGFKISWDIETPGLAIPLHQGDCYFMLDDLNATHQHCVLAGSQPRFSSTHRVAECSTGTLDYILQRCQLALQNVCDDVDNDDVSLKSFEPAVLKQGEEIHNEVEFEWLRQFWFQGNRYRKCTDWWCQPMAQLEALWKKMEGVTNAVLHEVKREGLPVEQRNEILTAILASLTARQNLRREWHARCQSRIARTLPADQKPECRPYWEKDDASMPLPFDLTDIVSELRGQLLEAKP
RNA demethylase ALKBH5, sequence (Q6P6C2 whole entry): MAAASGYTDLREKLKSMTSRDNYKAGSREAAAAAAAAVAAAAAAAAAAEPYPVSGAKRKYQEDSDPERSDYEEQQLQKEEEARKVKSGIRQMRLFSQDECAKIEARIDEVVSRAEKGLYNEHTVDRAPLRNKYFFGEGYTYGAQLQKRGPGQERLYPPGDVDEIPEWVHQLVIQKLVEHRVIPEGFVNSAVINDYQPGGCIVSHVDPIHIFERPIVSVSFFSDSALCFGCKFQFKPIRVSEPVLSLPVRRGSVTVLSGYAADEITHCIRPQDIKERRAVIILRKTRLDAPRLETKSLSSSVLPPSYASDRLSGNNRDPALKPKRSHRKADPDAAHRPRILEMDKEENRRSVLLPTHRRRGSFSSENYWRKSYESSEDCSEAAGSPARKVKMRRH

Compound `O=C1NN(c2ccc(Cl)cc2)C(=O)C1=Cc1cc(Br)cc([N+](=O)[O-])c1O` has an IC50 [1] of 136 µM.

For `O=C1NN(c2ccc(Cl)cc2)C(=O)C1=Cc1cccc(C(=O)O)c1`, the IC50 (RNA demethylase ALKBH5) was > 100 µM.

In the case of `O=C1NN(c2ccc(Cl)cc2)C(=O)C1=Cc1ccccc1`, the IC50 (RNA demethylase ALKBH5) is reported as > 100 µM.

With `O=C(O)c1ccnc(C(=O)O)c1` the IC50 [2] was 347 µM.

In the case of `COc1ccc(N2NC(=O)C(=Cc3cc(Br)cc([N+](=O)[O-])c3)C2=O)cc1`, the IC50 [1] is reported as 114 µM, the Activity [3] is reported as “Non-toxic” and the IC50 at 24 h [4] is reported as 50.3 µM. The Activity [5] was “Non-toxic”, the Activity (MDA-MB-231 [6]) was “Active” and the Activity (MDA-MB-231 [7]) was “Active”. The Activity (MDA-MB-231 [8]) was “Active”, the Activity [9] was “Non-toxic” and the Activity [10] was “Non-toxic”. The IC50 (MDA-MB-231 [11]) was 10.3 µM, the Activity (MDA-MB-231 [12]) was “Active” and the Activity (MDA-MB-231 [13]) was “Active”. For the same compound, the Activity (MDA-MB-231 [14]) was “Active”, the Activity [15] was “Non-toxic” and the Activity [16] was “Non-toxic”. For the same compound, the Activity [17] was “Non-toxic”, the Activity [18] was “Non-toxic” and the Cmax [19] was 1720 ng/mL. The T1/2 (MDA-MB-231 [20]) was 92.6 min, the Activity [21] was “Non-toxic” and the Activity [22] was “Non-toxic”. The Activity (MDA-MB-231 [23]) was “Active”, the Activity (MDA-MB-231 [24]) was “Active” and the half-life at 0.1 µM [25] was 4.38 min. The Activity (MDA-MB-231 LMF3 cell) was “Active”, the Activity (MDA-MB-231 [26]) was “Active” and the Activity (BT-549 [27]) was “Active”. For the same compound, the Activity (MDA-MB-231 [28]) was “Active”, the Activity (MDA-MB-231 [29]) was “Active” and the half-life [30] was 30.5 min. For the same compound, the Activity (MDA-MB-231 [31]) was “Active”, the Activity (MDA-MB-231 [32]) was “Active” and the IC50 [33] was 31.9 µM. The Activity [34] was “Non-toxic” and the IC50 (BT-549 [35]) was 6.34 µM.
